This experiment deals with T1, FAAH (Homo sapiens, UniProt O00519).
T1 construct: host or cells: 5637 human bladder epithelial cancer-derived cells, not transfected
T1 sequence (O00519 1-579): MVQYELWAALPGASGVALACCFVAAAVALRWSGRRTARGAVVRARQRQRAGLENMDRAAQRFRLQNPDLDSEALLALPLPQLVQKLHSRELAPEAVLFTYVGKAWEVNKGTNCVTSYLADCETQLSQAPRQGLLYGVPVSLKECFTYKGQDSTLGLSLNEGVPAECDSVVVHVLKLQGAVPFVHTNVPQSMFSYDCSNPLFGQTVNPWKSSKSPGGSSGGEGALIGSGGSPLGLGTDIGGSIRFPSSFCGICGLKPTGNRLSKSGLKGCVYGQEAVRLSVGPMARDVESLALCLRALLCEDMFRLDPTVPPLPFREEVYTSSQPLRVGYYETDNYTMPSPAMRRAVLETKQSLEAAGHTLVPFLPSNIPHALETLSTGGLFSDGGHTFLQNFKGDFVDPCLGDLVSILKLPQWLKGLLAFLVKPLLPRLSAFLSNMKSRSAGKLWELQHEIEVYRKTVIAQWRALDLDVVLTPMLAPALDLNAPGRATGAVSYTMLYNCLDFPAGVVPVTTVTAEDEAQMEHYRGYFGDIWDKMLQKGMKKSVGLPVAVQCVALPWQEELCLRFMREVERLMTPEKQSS
Put plainly: Screening for an FAAH activity-inhibiting substance with human bladder epithelial cancer-derived cell line 5637 cells (IC50). It counts as cell-based. To be noted: FAAH activity in human bladder epithelial cancer-derived 5637 cells, 37° C., 30 minutes. The procedure:
Screening for an FAAH Activity-Inhibiting Substance with a Human Bladder Epithelial Cancer-Derived Cell
(1) Screening for an FAAH Activity Inhibiting Substance
Human bladder epithelial cancer-derived cell line 5637 cells (HTB-9; ATCC) were seeded on a 48-well cell culture plate in an amount of 1×10^5 cell/well, using 10% fetal bovine serum (HyClone)-containing RPMI1640 medium (Invitrogen Corporation). After incubated at 37° C. for 12 hours or longer, the cells were washed with 400 μl/well of a buffer (Hank's Balanced Salt Solution, 20 mM Hepes-NaOH (pH 7.4)). A test substance dissolved in DMSO was added to a substrate solution (the above buffer containing 3 μCi/ml radiolabeled anandamide (Anandamide [ethanolamine 1-^3H]) and 10 μM anandamide) so as to have a concentration from 0.003 nM to 30 nM. As a control, DMSO alone was added. 100 μl/well of the substrate solution was added to the above cells, and incubated in a CO2 incubator at 37° C. for 30 minutes. Next, the cell culture plate was transferred onto ice, and the substrate solution was removed by suction; and 75 μl/well of a cytolytic solution (the above buffer containing 0.5% Triton X-100, and 10 μM of FAAH-inhibitory activity-having compound, 3′-carbamoylbiphenyl-3-yl ester (URB597; Cayman chemical; Kathuria et al., Nature Med., Vol. 9, pp. 76-81, 2003)) was added thereto, followed by stirring. The resulting cell lysate in every well was individually transferred into a 1.5 ml sample tube, to which was added 150 μl of 1:1 (ratio by volume) chloroform/methanol solution, followed by vortexing. This was centrifuged (15000 rpm, 2 minutes), whereby the decomposed product, ethanolamine (ethanolamine 1-^3H) was separated in the upper layer (water/methanol layer) and the unreacted radiolabeled anandamide was in the lower layer (chloroform layer). 25 μl of the upper layer was transferred into a 96-well organic solvent-resistant white microplate (PicoPlate-96; Perkin Elmer, Inc.), 150 μl of Microscint-20 (Perkin Elmer, Inc.) was added thereto, and this was measured with a microplate scintillation counter (TopCount™; Beckman Coulter, Inc.). As compared with the control, the substance that gave a decreased value was selected as an FAAH activity-inhibiting substance.
(2) Measurement of the IC50 Value of the FAAH Activity Inhibiting Substance
The compound dissolved in DMSO to have a concentration of 10 mM was dissolved in the substrate solution so as to have a varying concentration from 0.003 nM to 30 nM. According to the method mentioned above, the compound was analyzed for its influence on FAAH activity. As a negative control, DMSO was used. As a positive control, URB597 was added to the substrate solution to have a concentration of 10 μM. Based on the measured value of the positive control, 0%, and on the measured value of the negative control, 100%, the IC50 value of the test substance was obtained. Furthermore, Ex represents Example No. as denoted below.

Counter-ions that a name gives are not always drawn.

15 compounds from patent US20110172230A1, “UREA COMPOUND OR SALT THEREOF” (priority 2006, published 2011) can be followed below.

What is called IC50 is the concentration at which inhibition is half-maximal. A lower IC50 goes with higher potency.

`O=C(Nc1cccnc1)N1CCC(Oc2ccc(OCc3cccc(F)c3)cc2)CC1` [Example 1, 4-{4-[(3-fluorobenzyl)oxy]phenoxy}-N-(pyridin-3-yl)piperidine-1-carboxamide hydrochloride] came in with a half-inhibitory concentration (IC50) of 5600 pM.

Compound `O=C(N1CCC(Oc2ccc(OCc3cccc(F)c3)cc2)CC1)n1ccnc1` [Example 12, 4-{4-[(3-fluorobenzyl)oxy]phenoxy}-1-(1H-imidazol-1-ylcarbonyl)piperidine] had an IC50 of 60 pM.

`O=C(c1ccc(OCc2cccc(F)c2)cc1)C1CCN(C(=O)Nc2cccnc2)CC1` [Example 59] returned a concentration for half-maximal inhibition (IC50) of 820 pM.

As to `O=C(c1ccc(OCCC2CCCCC2)cc1)C1CCN(C(=O)Nc2cccnc2)CC1` [Example 75], the IC50 was 810 pM.

The compound `O=C(Cc1ccc(OCc2cccc(F)c2)cc1)N1CCN(C(=O)Nc2cccnc2)CC1` [Example 136] yielded an IC50 of 220 pM.

As for `O=C(Nc1ccc(-n2cccn2)nc1)N1CCN(C(=O)c2cccc(OCCC3CCCCC3)c2)CC1` [Example 156], the IC50 is 330 pM.

Regarding `Nc1ccnn1C(=O)N1CCN(C(=O)c2cccc(OCCC3CCCCC3)c2)CC1` [Example 159], half-maximal inhibition (IC50) required 290 pM.

Consider `CC(=O)Nc1ccc(NC(=O)N2CCN(C(=O)c3cccc(OCCC4CCCCC4)c3)CC2)cn1` [Example 179], for which the IC50 is 210 pM.

`O=C(c1ccc(OCc2cccc(F)c2)cc1)N1CCN(C(=O)n2ccnc2)CC1` [Example 300] registered an IC50 of 160 pM.

In turn, `CCCCCCOc1ccc(C(=O)N2CCN(C(=O)Nc3cccnc3)CC2)cc1` [Example 317] showed a concentration for half-maximal inhibition (IC50) of 570 pM.

`O=C(Nc1cccnc1)N1CCN(C(=O)c2cccc(OCC3CCCCC3)c2)CC1` [Example 320] showed an IC50 of 240 pM.

`CN(Cc1cccc(F)c1)c1ccc(C(=O)N2CCN(C(=O)Nc3cccnc3)CC2)cc1` [Example 322] gave a half-inhibitory concentration (IC50) of 540 pM.

Turning to `O=C(Nc1cccnc1)N1CCN(Cc2cccc(OCCC3CCCCC3)c2)CC1` [Example 388], it took 80 pM to reach half-maximal inhibition (IC50).

With `O=C(Nc1cccnc1)N1CCN(C(=O)c2cccc(OCCc3ccccc3)c2)CC1` [Example 426], the IC50 is 120 pM.

Take `O=C(Nc1nccnc1Cl)N1CCC(Oc2cccc(OCCC3CCCCC3)c2)CC1` [Example 488]: half-maximal inhibition (IC50) was put at 850 pM.
